This is an account of results in the supplement of paper PMC12490022.

SMILES strings stand for the structures. ± gives the uncertainty stated by the source.

In this series the test system is ozone. The series is described as follows: apparent second-order rate constant for reaction with ozone (kapp,O3) (M-1 s-1); higher = faster oxidation by ozone. Conditions: pH 7; temperature: 22 C; OH radical scavenger: tBuOH 80 mM; phosphate 4 mM. As for the experimental part: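 Apparent second-order rate constants for reaction with ozone at pH 7 were determined by multicompound competition kinetics. Mixtures of targets and competitors (10 ug/L each) were ozonated in 4 mM phosphate buffer, pH 7, with 80 mM tBuOH as OH-radical scavenger, at 22 ± 1 °C. Peak-area abatement was measured by HPLC-HRMS/MS and k was derived from ln-ln slopes against competitors with known k (R2 > 0.9, >= 10 points, slope 0.1-10). Experiments were run in triplicate on 3 days; the value is the mean over valid competitors ± SD.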
As to `Nc1nc(N)[n+]([C@@H]2O[C@H](C(=O)O)[C@@H](O)[C@H](O)[C@H]2O)nc1-c1cccc(Cl)c1Cl` [Lamotrigine-N2-glucuronide], the “apparent second-order rate constant” value amounted to 371 ± 20. With `CC12C=CC(=O)C=C1CCC1C2C(=O)CC2(C)C1CCC2(O)C(=O)CO` (stereo not given) [Prednisone], the “apparent second-order rate constant” value was found to be 324 ± 15.

For `CC(C)(C(=O)O)c1ccc(C(O)CCC[N+]2([O-])CCC(C(O)(c3ccccc3)c3ccccc3)CC2)cc1` (stereo not given) [Fexofenadine-N-oxide], the “apparent second-order rate constant” value was 11.9 ± 1.3. `CC(=O)Nc1c(I)c(C(=O)NCC(O)CO)c(I)c(C(=O)N(C)CC(O)CO)c1I` (stereo not given) [Desmethoxyiopromide]: the “apparent second-order rate constant” value is 1.74 ± 0.19. Turning to `CN(C)CC(c1ccc(O)cc1)C1(O)CCCCC1` (stereo not given) [O-Desmethylvenlafaxine], the “apparent second-order rate constant” value was 2.09e+06 ± 170000. As for `COc1ccc(CCN(C)CCCC(C#N)(c2ccc(OC)c(OC)c2)C(C)C)cc1OC` (stereo not given) [Verapamil], the “apparent second-order rate constant” value amounted to 64000 ± 14000.

With `NC1(c2ccccc2Cl)CCCCC1=O` (stereo not given) [Norketamine], the “apparent second-order rate constant” value was 37.5 ± 2.5. `O=C(O)Cc1cc(O)ccc1Nc1c(Cl)cccc1Cl` [5-Hydroxydiclofenac]: the “apparent second-order rate constant” value is 6.4e+07 ± 1.4e+07.

Take `CC[N+]([O-])(CC)CC(=O)Nc1c(C)cccc1C` [Lidocaine-N-oxide]: the “apparent second-order rate constant” value is 10.9 ± 1.2. As for `Nc1nc(=O)n(C2CSC(CO)O2)cc1F` (stereo not given) [Emtricitabine], the “apparent second-order rate constant” value amounted to 79000 ± 70000. `CCCCc1nc(Cl)c(CO)n1Cc1ccc(-c2ccccc2-c2nn[nH]n2)cc1` [Losartan]: the “apparent second-order rate constant” value is 198000 ± 16000.

For `COC(=O)C1C(OC(=O)c2ccccc2)CC2CCC1[N+]2(C)[O-]` (stereo not given) [Cocaine-N-oxide], the “apparent second-order rate constant” value was less than 0.401. As to `O=C(O)C(c1ccccc1Cl)N1CCc2sccc2C1` (stereo not given) [Clopidogrel carboxylic acid], the “apparent second-order rate constant” value stood at 175000 ± 14000. In the case of `CC(C(=O)O)c1ccc2cc(O)ccc2c1` (stereo not given) [O-Desmethylnaproxen] it was 6.6e+06 ± 500000; in that of `CC(C)c1c(C(=O)Nc2ccccc2O)c(-c2ccccc2)c(-c2ccc(F)cc2)n1CCC(O)CC(O)CC(=O)O` (stereo not given) [ortho-Hydroxyatorvastatin], 1.8e+08 ± 4e+07. Take `COc1ccnc(CS(=O)c2nc3ccc(OC(F)F)cc3[nH]2)c1OC` (stereo not given) [Pantoprazole]: the “apparent second-order rate constant” value amounted to 108 ± 5.6. As for `CNCCCC(C#N)(c1ccc(OC)c(OC)c1)C(C)C` (stereo not given), the “apparent second-order rate constant” value came to 2300 ± 200.

Consider `CNCC(O)c1cccc(O)c1` (stereo not given) [Phenylephrine], for which the “apparent second-order rate constant” value is 158000 ± 7000. In the case of `Cc1ccc(-c2nc3ccc(C)cn3c2CC(=O)N(C)C)cc1` [Zolpidem], the “apparent second-order rate constant” value stood at 1.28e+07 ± 900000. Take `CCC1OC(=O)C(C)C(O)C(C)C(OC2OC(C)CC(N(C)C)C2O)C(C)(O)CC(C)CN(C)C(C)C(O)C1(C)O` (stereo not given) [Desosaminylazithromycin]: the “apparent second-order rate constant” value worked out at 239000 ± 8000. In the case of `CC1CC2C3CCC4=CC(=O)C=CC4(C)C3(F)C(O)CC2(C)C1(O)C(=O)CO` (stereo not given) [Betamethasone] it was 35.8 ± 1.8; in that of `CC(Cc1ccc(C(C)C(=O)O)cc1)C(=O)O` (stereo not given) [Carboxyibuprofen], 11.8 ± 1.3; in that of `Nc1[nH]c(=O)ncc1F` [5-Fluorocytosine], 24300 ± 2500. For the compound `CCN1CCCC1CNC(=O)c1cc(S(N)(=O)=O)ccc1OC` (stereo not given) [Sulpiride], the “apparent second-order rate constant” value is 1.75e+06 ± 70000. To `COc1ccc2c3c1OC1C(O)C=CC4C(C2)N(C)CCC341` (stereo not given) [Codeine] belongs 1.03e+06 ± 88000; to `Cc1ccc(C(=O)C(C)CN2CCCCC2)cc1` (stereo not given) [Tolperisone], 17400 ± 1700.

In the case of `NS(=O)(=O)c1cc2c(cc1Cl)NC=NS2(=O)=O` [Chlorothiazide], the “apparent second-order rate constant” value turned out to be 1.57 ± 0.17.

With `COc1ccc2c(c1)c(CC(=O)OCC(=O)O)c(C)n2C(=O)c1ccc(Cl)cc1` [Acemethacin], the “apparent second-order rate constant” value turned out to be 1.04e+06 ± 86000. In the case of `COc1ccc([C@@H]2Sc3ccccc3N(CCN(C)C)C(=O)[C@@H]2O)cc1` [Desacetyldiltiazem] it was 668000 ± 57000; in that of `COC(=O)C1C(OC(=O)c2ccccc2)CC2CCC1N2C` (stereo not given) [Cocaine], 3020 ± 260.

As for `CC(C)(Oc1ccc(C(=O)c2ccc(Cl)cc2)cc1)C(=O)O` [Fenofibric acid], the “apparent second-order rate constant” value worked out at 2.8 ± 0.3. Consider `Oc1ccc(C(c2ccc(O)cc2)c2ccccn2)cc1` [Desacetylbisacodyl], for which the “apparent second-order rate constant” value was found to be 2.25e+06 ± 220000.

Consider `Cc1cccc(Nc2ccncc2S(=O)(=O)NC(=O)NC(C)C)c1` [Torasemide], for which the “apparent second-order rate constant” value was 2990 ± 260. For the compound `COC(=O)C(C)c1ccc2cc(OC)ccc2c1` (stereo not given) [Naproxen methyl ester], the “apparent second-order rate constant” value stood at 278000 ± 25000. `CC(N)C(O)c1ccccc1` (stereo not given) [Norephedrine]: the “apparent second-order rate constant” value is 45.5 ± 2.3. As for `CCC1OC(=O)C(C)C(OC2CC(C)(OC)C(O)C(C)O2)C(C)C(OC2OC(C)CC(N(C)C)C2O)C(C)(O)CC(C)CN(C)C(C)C(O)C1(C)O` (stereo not given) [Azithromycin], the “apparent second-order rate constant” value was found to be 72000 ± 17000.

With `Clc1ccc2c(c1)CCc1cccnc1C2=C1CCNCC1` [Desloratadine], the “apparent second-order rate constant” value was determined as 1960 ± 160.

Take `CNCCC(Oc1ccc(C(F)(F)F)cc1)c1ccccc1` (stereo not given) [Fluoxetine]: the “apparent second-order rate constant” value is 1720 ± 50. On to `CC(C(=O)O)c1ccc(C(O)C(C)C)cc1` (stereo not given) [1-Hydroxyibuprofen], for which the “apparent second-order rate constant” value came out at 14.7 ± 1.6. For the compound `CC(C)NCC(O)COc1ccc(CC(=O)O)cc1` (stereo not given) [Atenolol acid], the “apparent second-order rate constant” value came out at 845 ± 57.

As for `O=C(O)CCNC(=O)c1ccc(Cl)cc1` [3-[(4-Chlorobenzoyl)amino]propanoic acid], the “apparent second-order rate constant” value was 0.194 ± 0.008. For the compound `CCOC(=O)C1=CC(OC(CC)CC)C(NC(C)=O)C(N)C1` (stereo not given) [Oseltamivir], the “apparent second-order rate constant” value was 6130 ± 510. To `C1=Cc2ccccc2Nc2ccccc21` [Iminostilbene] belongs 7.6e+07 ± 1.7e+07; to `COc1ccc(C2Sc3ccccc3N(CCN(C)C)C(=O)C2OC(C)=O)cc1` (stereo not given) [Diltiazem], 735000 ± 67000; to `NC(=O)N1c2ccccc2CC(O)c2ccccc21` (stereo not given) [Licarbazepine], 10.9 ± 1.2. Consider `Cn1c(=O)c2[nH]cnc2n(C)c1=O` [Theophylline], for which the “apparent second-order rate constant” value was found to be 885000 ± 78000. To `CC(=O)Nc1ccc(S(=O)(=O)Nc2ncccn2)cc1` [N4-Acetylsulfadiazine] belongs 89 ± 4.9.

As for `COC(=O)C(c1ccccc1)C1CCCCN1` (stereo not given) [Methylphenidate], the “apparent second-order rate constant” value was found to be 4300 ± 360. As for `CC(C)c1c(C(=O)Nc2ccc(O)cc2)c(-c2ccccc2)c(-c2ccc(F)cc2)n1CCC(O)CC(O)CC(=O)O` (stereo not given) [para-Hydroxyatorvastatin], the “apparent second-order rate constant” value worked out at 6.6e+07 ± 1.4e+07. With `c1cncc(C2CCCN2)c1` (stereo not given) [Nornicotine], the “apparent second-order rate constant” value came to 6350 ± 520.

Turning to `CC[N+]1([O-])CCCC1CNC(=O)c1cc(S(=O)(=O)CC)c(N)cc1OC` (stereo not given) [Amisulpride-N-oxide], the “apparent second-order rate constant” value came out at 1190 ± 100. To `CCC1(c2ccccc2)C(=O)NCNC1=O` [Primidone] belongs 2.4 ± 0.3; to `CCC(CC)OC1C=C(C(=O)O)CC(N)C1NC(C)=O` (stereo not given) [Oseltamivir acid], 87000 ± 7700; to `COc1ccc2cc(C(C)C(=O)O)ccc2c1` (stereo not given) [Naproxen], 500000 ± 46000. To `NC(=O)N1c2ccccc2C2OC2c2ccccc21` (stereo not given) [Carbamazepine-10,11-epoxide] belongs less than 0.401; to `O=c1n(CCCN2CCN(c3cccc(Cl)c3)CC2)nc2ccccn12` [Trazodone], 1.31e+07 ± 1.6e+06. Regarding `CCN1CCCC1CNC(=O)c1cc(S(=O)(=O)CC)c(N)cc1OC` (stereo not given) [Amisulpride], the “apparent second-order rate constant” value was determined as 18000 ± 1600. To `CNCC(c1ccc(O)cc1)C1(O)CCCCC1` (stereo not given) [N,O-Didesmethylvenlafaxine] belongs 1.99e+06 ± 120000; to `CN1CCN2c3ncccc3Cc3ccccc3C2C1` (stereo not given) [Mirtazapine], 957000 ± 81000; to `CNC(C)C(O)c1ccccc1` (stereo not given) [Pseudoephedrine], 1370 ± 110. Take `Nc1nnc(-c2cccc(Cl)c2Cl)c(N)n1` [Lamotrigine]: the “apparent second-order rate constant” value came to 17.1 ± 1.2. `CCC1OC(=O)C(C)C(OC2CC(C)(OC)C(O)C(C)O2)C(C)C(OC2OC(C)CC(NC)C2O)C(C)(O)CC(C)CN(C)C(C)C(O)C1(C)O` (stereo not given) [N-Desmethylazithromycin]: the “apparent second-order rate constant” value was found to be 10300 ± 980. `COc1cc(Cc2cnc(N)nc2N)cc(O)c1OC` [3-Desmethyltrimethoprim]: the “apparent second-order rate constant” value came to 1.17e+07 ± 900000. Turning to `CC(C)c1nc(N(C)S(C)(=O)=O)nc(-c2ccc(F)cc2)c1C=CC(O)CC(O)CC(=O)O` (stereo not given) [Rosuvastatin], the “apparent second-order rate constant” value was 3250 ± 260. Regarding `O=C(O)CCC(=O)O` [Succinic acid], the “apparent second-order rate constant” value is less than 0.401.
